Test results published in patent US9963446B2, “Oxepan-2-yl-pyrazol-4-yl-heterocyclyl-carboxamide compounds and methods of use” (Genentech, Inc., priority 2014, dated 2018).

Tests used:
[1] = system: BaF3 parental cells; experiment: In vitro cell proliferation, BaF3 parental line + IL3; type: cell-based, murine; details: Mus musculus; BaF3 parental line with mIL-3, incubated overnight; read-out: Prolif BaF3 + IL3 (IC50)
Method: (§1) BaF3 parental line was obtained from the DSMZ repository. BaF3 lines transfected with PIM1 or PIM2 were generated. Mouse IL-3 was purchased from R&D Systems. G418 was purchased from Clontech. Media for BaF3 parental line contained RPMI, 10% FBS, 2 mM L-Glutamine, 2 ng/mL mIL-3. Media for BaF3 PIM1 & 2 lines contained RPMI, 10% FBS, 2 mM L-Glutamine, […]. Media for MM1.S (multiple myeloma cells) line contained RPMI, 10% FBS, 2 mM L-Glutamine.
(§2) BaF3, a murine interleukin-3 dependent pro-B cell line, parental cells, BaF3 PIM1 cells, BaF3 PIM2 cells, and MM1.S (multiple myeloma) cells were seeded at 2 k/well, 5 k/well, 5 k/well, and 10 k/well respectively, in a 384-well plate, at 45 μL/well. Test compound was added at 5 μL/well. BaF3 cells (parental and transfected) were incubated overnight, while MM1.S cells were incubated for 72 hours at 37° C., 5% CO2. CELL TITER GLO® Reagent (Promega) was added at 50 μL/well, the plates were incubated for 30 minutes, and their luminescence read on an HT Analyst. IC50/EC50 values for the test compound were calculated.

[2] = molecular target: PIM1 (Homo sapiens (Human), UniProt P11309); experiment: Pim kinase binding activity (PIM1 LC3K Ki); type: biochemical; details: 20 pM PIM1, 10 μM ATP, 90 minutes
Method: PIM-1, -2, and -3 enzymes were generated as fusion proteins expressed in bacteria and purified by IMAC column chromatography (Sun, X., Chiu, J. F., and He, Q. Y. (2005) Expert Rev. Proteomics, 2:649-657). A fluorescent-labeled Pim-specific peptide substrate, was custom synthesized by American Peptide Company (Sunnyvale, Calif.). Reaction Buffer contained 10 mM HEPES, pH 7.2, 10 mM MgCl2, 0.01% Tween 20, 2 mM DTT. Termination Buffer contained 190 mM HEPES, pH 7.2, 0.015% Brij-35, 0.2% Coating Reagent 3 (Caliper Life Sciences, Hopkinton, Mass.), 20 mM EDTA. Separation Buffer contained 100 mM HEPES, pH 7.2, 0.015% Brij-35, 0.1% Coating Reagent 3, 1:200 Coating Reagent 8 (Caliper Life Sciences, Hopkinton, Mass.), 10 mM EDTA and 5% DMSO.
PIM reactions were carried out in a final volume of 10 μL per well in a 384-well plate. A standard enzymatic reaction, initiated by the addition of 5 μL 2×ATP and test compound to 5 μL of 2× enzyme and FAM-peptide, contained 20 pM PIM1, 50 pM PIM2, or 55 pM PIM3, 1 μM FAM-peptide, and 10 μM ATP, in Reaction Buffer. After 90 minutes of incubation at room temperature, the phosphorylation reaction was stopped by the addition of 10 μL Termination Buffer. The product and substrate in each independent reaction were separated on a 12-sipper microfluidic chip (Caliper Life Sciences, Hopkinton, Mass.) run on a Caliper LC3000® (Caliper Life Sciences, Hopkinton, Mass.). The separation of product and substrate was optimized by choosing voltages and pressure using Caliper's Optimizer software (Hopkinton, Mass.). The separation conditions used a downstream voltage of −500V, an upstream voltage of −2150V, and a screening pressure of −1.2 psi. The product and substrate fluorophore were excited at 488 nm and detected at 530 nm. Substrate conversion was calculated from the electropherogram using HTS Well Analyzer software (Caliper Life Sciences, Hopkinton, Mass.). Ki values for the test compound were calculated. See Table 1 for representative PIM1 LC3K Ki in micromolar values of exemplary compounds.

[3] = system: MM1.S (multiple myeloma) cells; experiment: In vitro cell proliferation, MM1.S (CELL TITER GLO); type: cell-based; details: Homo sapiens, 72 hours, read-out: Prolif MM1S ATP (EC50)
Method: as §1, §2

[4] = system: BaF3 PIM1 cells; experiment: In vitro cell proliferation, BaF3 transfected with PIM1; type: cell-based, murine; details: Mus musculus; BaF3 PIM1 line, incubated overnight; read-out: Prolif BaF3 PIM1 (IC50)
Method: as §1, §2

Chain of PIM1 (P11309 whole entry, the tested form may be a part): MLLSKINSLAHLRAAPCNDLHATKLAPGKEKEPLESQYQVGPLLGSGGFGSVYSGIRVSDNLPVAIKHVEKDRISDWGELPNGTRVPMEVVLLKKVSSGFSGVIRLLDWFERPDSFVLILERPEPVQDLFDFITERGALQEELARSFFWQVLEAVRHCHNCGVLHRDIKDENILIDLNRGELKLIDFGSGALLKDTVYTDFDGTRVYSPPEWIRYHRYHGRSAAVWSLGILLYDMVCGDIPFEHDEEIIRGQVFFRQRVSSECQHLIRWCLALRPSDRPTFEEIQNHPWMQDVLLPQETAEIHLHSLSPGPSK

Row | Structure (SMILES) | IC50 [1] | Ki [2] | EC50 [3] | IC50 [4]
1 | Cn1ncc(NC(=O)c2csc(-c3c(F)cc4c(c3F)OCC[C@H]4O)n2)c1[C@@H]1CC[C@@H](N)[C@H](F)CO1 [Example 112, N-(5-((2S,5R,6S)-5-amino-6-fluorooxepan-2-yl)-1-methyl-1H-pyrazol-4-yl)-2-((R)-6,8-difluoro-4-hydroxychroman-7-yl)thiazole-4-carboxamide] | > 25000 nM | 0.004 nM | 202 nM | 118 nM
2 | C[C@H](F)c1cc(F)c(-c2nc(C(=O)Nc3cnn(C)c3[C@@H]3CC[C@@H](N)[C@H](F)CO3)cs2)c(F)c1 [Example 101, N-(5-((2S,5R,6S)-5-amino-6-fluorooxepan-2-yl)-1-methyl-1H-pyrazol-4-yl)-2-(2,6-difluoro-4-((S)-1-fluoroethyl)phenyl)thiazole-4-carboxamide] | 7100 nM | 0.002 nM | 441 nM | 24.8 nM
3 | CO[C@H]1[C@H](N)CC[C@@H](c2c(NC(=O)c3csc(-c4c(F)cccc4F)n3)cnn2C)O[C@@H]1C [Example 118, N-(5-((2S,5R,6S,7R)-5-amino-6-methoxy-7-methyloxepan-2-yl)-1-methyl-1H-pyrazol-4-yl)-2-(2,6-difluorophenyl)thiazole-4-carboxamide] | 2500 nM | 0.006 nM | 67.3 nM | 8.95 nM
4 | Cn1ncc(NC(=O)c2csc(-c3ccc4c(c3)CCO4)n2)c1[C@@H]1CC[C@@H](N)[C@H](F)CO1 [Example 104, N-[5-[(2S,5R,6S)-5-amino-6-fluoro-oxepan-2-yl]-1-methyl-pyrazol-4-yl]-2-(2,3-dihydrobenzofuran-5-yl)thiazole-4-carboxamide] | 13200 nM | 0.104 nM | 544 nM | 98.5 nM
5 | Cn1ncc(NC(=O)c2csc(-c3c(O)cccc3F)n2)c1[C@@H]1CC[C@@H](N)[C@H](F)CO1 [Example 102, N-[5-[(2S,5R,6S)-5-amino-6-fluoro-oxepan-2-yl]-1-methyl-pyrazol-4-yl]-2-(2-fluoro-6-hydroxy-phenyl)thiazole-4-carboxamide] | 9100 nM | 0.121 nM | 702 nM | 164 nM
6 | C[C@@H]1O[C@H](c2c(NC(=O)c3csc(-c4c(F)cccc4F)n3)cnn2C)CC[C@@H](N)[C@H]1F [Example 121, N-(5-((2S,5R,6R,7S)-5-amino-6-fluoro-7-methyloxepan-2-yl)-1-methyl-1H-pyrazol-4-yl)-2-(2,6-difluorophenyl)thiazole-4-carboxamide] | 14200 nM | 0.0049 nM | 376 nM | 12.2 nM
7 | N[C@H]1CC[C@H](c2c(NC(=O)c3ccc(F)c(-c4c(F)cccc4F)n3)cnn2C2CC2)OC[C@@H]1F [Example 114, N-[5-[(2R,5S,6R)-5-amino-6-fluoro-oxepan-2-yl]-1-cyclopropyl-pyrazol-4-yl]-6-(2,6-difluorophenyl)-5-fluoro-pyridine-2-carboxamide] | 10100 nM | 0.173 nM | 443 nM | 75.1 nM
8 | COc1cc(F)c(-c2nc(C(=O)Nc3cnn(C)c3[C@@H]3CC[C@@H](N)[C@H](F)CO3)cs2)cc1Cl [Example 108, N-[5-[(2S,5R,6S)-5-amino-6-fluoro-oxepan-2-yl]-1-methyl-pyrazol-4-yl]-2-(5-chloro-2-fluoro-4-methoxy-phenyl)thiazole-4-carboxamide] | 1900 nM | 0.042 nM | 490 nM | 80.5 nM
9 | Cn1ncc(NC(=O)c2csc(-c3cn4ccnc4cn3)n2)c1[C@@H]1CC[C@@H](N)[C@H](F)CO1 [Example 122, N-(5-((2S,5R,6S)-5-amino-6-fluorooxepan-2-yl)-1-methyl-1H-pyrazol-4-yl)-2-(imidazo[1,2-a]pyrazin-6-yl)thiazole-4-carboxamide] | 12500 nM | 0.025 nM | 600 nM | 184 nM
